Experimental data published in US5108900A, “Monoclonal antibodies to synthetic pyrethroids and method for detecting the same” (Regents of the University of California, priority 1989, dated 1992).

Experiments:
[1] = cited from earlier work; for oncogenicity listing by U.S. Environmental Protection Agency: Regulating Pesticides in Food: The Delaney Paradox, 1987; for mammalian toxicity: background
[2] = background; cited from earlier work
monoclonal antibody Py-1 = experiment: Competition ELISA (cELISA), monoclonal antibody Py-1, 3-pba-BSA coated plates; format: binding, mouse; details: for I50 values observed for competitors (FIG. 4) / Average 50% inhibition values (I50), Py-1: Py-1; for Average 50% inhibition values (I50), Py-1: Table I, averages from at least 12 assays
Protocol: (§1) The binding specificities of antibodies to standards and assay samples were evaluated by competition ELISA assays. In a competition assay system, an antigen, which is a large molecule with protein or carbohydrate moieties which can precisely bind with steric interaction with the conformation of the antibodies is fixed to the reaction surface of a test plate, and antigen-specific antibody is added along with an aliquot of sample extract or standard test solution. The free-floating antibody partitions between the fixed antigen bound to the test reaction surface and the antigen of the added sample or standard which is free-floating in the solution. After a reaction period, the free-floating antigen-antibody complex is washed away. The plate is rewashed and incubated with an enzyme-tagged indicator molecule which will immunospecifically bind to proteins of the animal species which was the source of the pyrethroid-specific antibodies. Substrate and buffer are provided for the reaction of the enzyme-tagged indicator molecule. The optical signal from the enzyme substrate reaction indicates the amount of pyrethroid-specific antibody which remains bound to the immobilized antigen on the reaction plate. The utility of such a reaction system is dependent on the surface binding of the antigenic hapten-protein complex. The sensitivity of such a binding system can be amplified by coupling the enzyme reaction endpoint to a biotin-avidin complex. Optimal enzyme sensitivity occurs when a minimal amount of coating antigen (3-pba-BSA) is used.
(§2) A competition enzyme-linked immunosorbent assay (c-ELISA) was developed to quantify permethrin standards in solution and to assess the specificity of the antibodies for various natural and synthetic pyrethroids. […] The 3-pba conjugate could be prepared by using EDC (1-ethyl-3-(3-dimethylaminopropyl)carbodiimide) as a cross-linking agent. The 3-pba conjugate was used as the coating agent for all subsequent experiments. Microtiter plates were coated with 0.5 μg/well 3-pba-BSA and blocked with ovalbumin.
(§3) In the competition ELISA, the competitors were dissolved in acetonitrile and were added to phosphate-buffered saline(PBS)-Tween buffer such that the resulting solution was 6% acetonitrile. Competitor was added so that each well contained 100 μl of competitor in a 6% acetonitrile-PBS solution. An equal volume of PBS containing monoclonal antibody was added such that there was a final concentration assay buffer containing antibody and competitor. These antibodies can tolerate up to 5% acetonitrile without loss of activity. The plates were incubated for one hour at 37° C. and the endpoint assessed by observation of the color change of p-nitrophenyl phosphate substrate actuated by alkaline phosphatase conjugated to goat anti-mouse antibody.
(§4) Because the sensitivity of c-ELISA's can be influenced by both the amount of specific anti-hapten antibody used and the amount of immobilized antigen, both of these parameters were optimized. In the preferred method, the amount of antigen used to coat the microtiter plates was varied from 10-0.5 μg/well, with 0.5 μg/well being more preferred. The method of application of the antigen to the plate was important to the assay. Antigen could be absorbed onto the wells overnight at 4° C. or antigen could be allowed to evaporate from the antigen solution onto the wells at 37° C. Using Py-1 antibody and permethrin as competitor, maximal sensitivity was observed when the antigen was allowed to evaporate onto the wells. In the preferred method microliter plates were prepared by evaporation of 100 μl of a 5 μg/mL solution of coating antigen (3-pba-BSA) at 37° C..
The antibody Py-1 was titrated against immobilized antigen (0.5 μg […]/well) in a direct binding ELISA. At a Py-1 antibody concentration of 0.02 μg/well, the level used in subsequent cELISA's, 40% of the plateau activity was reached. […]

monoclonal antibody Py-4 = experiment: Competition ELISA (cELISA), monoclonal antibody Py-4, 3-pba-BSA coated plates; format: binding, mouse; details: for Average 50% inhibition values (I50), Py-4: Table I, averages from at least 12 assays
Protocol: as §1, §2, §3
as §4, with “C.. […]” for “C..”
(§5) The competition ELISA data was normalized using 100% activity as the optical density in wells in which antibody bound to the solid phase antigen (3-pba-BSA) in the absence of any competitor. The test wells, each containing different amounts of competitor, were normalized to the 100% activity wells. […]

monoclonal antibody Py-3 = experiment: Competition ELISA (cELISA), monoclonal antibody Py-3, 3-pba-BSA coated plates; format: binding, mouse; details: for Average 50% inhibition values (I50), Py-3: Table I, averages from at least 12 assays
Protocol: as §1, §2, §3
as §4, with “C.. […]” for “C..”
as §5

[3] = test system: Antibodies selected for their binding to the analog hapten of permethrin; experiment: Antibody response to hapten and related pyrethroids; set-up: species or system mouse
Excerpt: Synthetic pyrethroids are small organic molecules, and in an effort to render such a molecule immunogenic, it was necessary to conjugate such molecules to carrier protein. Various modifications of synthetic pyrethroids can be made to achieve this purpose.

| SMILES | I50 values observed for competitors (FIG. 4) (monoclonal antibody Py-1) | Average 50% inhibition values (I50), Py-1 (monoclonal antibody Py-1) | Average 50% inhibition values (I50), Py-4 (monoclonal antibody Py-4) | Average 50% inhibition values (I50), Py-3 (monoclonal antibody Py-3) | other results |
| --- | --- | --- | --- | --- | --- |
| CC1(C)C(C=C(Cl)Cl)C1C(=O)OC(C#N)c1cccc(Oc2ccccc2)c1 (mixture of isomers) [Cypermethrin, alpha-cyano-3-phenoxybenzyl cis, trans-3-(2,2-dichlorovinyl)-2,2-dimethylcyclopropanecarboxylate] | 30 ng/well | 30 nanograms | 22 nanograms | 20 nanograms | oncogenicity listing by U.S. Environmental Protection Agency [1]: potentially oncogenic; mammalian toxicity [1]: low mammalian toxicity; stability [2]: more stable |
| CC1(C)C(C=C(Cl)Cl)C1C(=O)OCc1cccc(Oc2ccccc2)c1 (mixture of isomers) [Permethrin, 3-phenoxybenzyl (lRS),cis,trans-3(2,2-dichlorovinyl)-2,2-dimethylcyclopropanecarboxylate] | 1.7 ng/well |  | 12 nanograms | 1.7 nanograms | oncogenicity listing by U.S. Environmental Protection Agency [1]: potentially oncogenic; mammalian toxicity [1]: low mammalian toxicity; stability [2]: more stable; concentration which caused a 50% inhibition (I50) of antibody activity, Py-1 (monoclonal antibody Py-1; FIG. 3, in words): low nanogram range; 50% inhibition value, Py-1 (monoclonal antibody Py-1; Table 1, ng of competitor): 1.5 ng; Average 50% inhibition values (I50), Py-1 (monoclonal antibody Py-1; listed as Permethrin (mixed isomers)): 1.5 nanograms; concentration which caused a 50% inhibition (I50) of antibody activity, Py-4 (monoclonal antibody Py-4; FIG. 3, in words): low nanogram range; 50% inhibition value, Py-4 (monoclonal antibody Py-4; Table 1, ng of competitor): 12 ng; responsiveness of antibodies [3]: similarly responsive; concentration which caused a 50% inhibition (I50) of antibody activity, Py-3 (monoclonal antibody Py-3; FIG. 3, in words): low nanogram range; 50% inhibition value, Py-3 (monoclonal antibody Py-3; Table 1, ng of competitor): 1.7 ng |
| CC(C)=CC1C(C(=O)OCc2cccc(Oc3ccccc3)c2)C1(C)C (mixture of isomers) [Phenothrin, 3-phenoxybenzyl(lRS)cis,transchrysanthemate] | 1.5 ng/well | 1.5 nanograms | 6 nanograms | 0.5 nanograms | responsiveness of antibodies [3]: similarly responsive |
| CC(C)=CC1C(C(=O)OCN2C(=O)C3=C(CCCC3)C2=O)C1(C)C (mixture of isomers) [Tetramethrin, N-(3,4,5,6-tetrahydrophthalimino) methyl (dl)-cis,trans-chrysanthemate] |  | > 600 nanograms |  |  |  |
| CC1(C)[C@H](C(=O)O[C@H](C#N)c2cccc(Oc3ccccc3)c2)[C@@H]1C=C(Br)Br (racemic) [Deltamethrin, -/+alpha-cyano-3-phenoxybenzyl-(+/-)-cis,trans-3-(2,2-dibromovinyl)-2,2-dimethylcyclopropanecarboxylate] | 15 ng/well | 15 nanograms | 10 nanograms | 10 nanograms | mammalian toxicity [1]: low mammalian toxicity; stability [2]: more stable |
| O=Cc1cccc(Oc2ccccc2)c1 [3-Phenoxybenzaldehyde] |  | 22 nanograms |  |  |  |
| O=C(O)c1cccc(Oc2ccccc2)c1 [3-Phenoxybenzoic acid] |  | 200 nanograms | 330 nanograms | 140 nanograms |  |
| CC(C)=CC1C(C(=O)O)C1(C)C (stereo not shown) [Chrysanthemic acid] |  | > 600 nanograms |  |  |  |
| CC1(C)C(C(=O)OC(C#N)c2cccc(Oc3ccccc3)c2)C1(C)C (stereo not drawn) [Fenpropathrin, alpha-cyano-3-phenoxybenzyl-2,2,3,3-tetramethylcyclopropanecarboxylate] |  | 17 nanograms | 25 nanograms | 10 nanograms |  |
| CC(C)C(C(=O)OC(C#N)c1cccc(Oc2ccccc2)c1)c1ccc(Cl)cc1 (stereo not shown) [Fenvalerate, cyano(3-phenoxyphenyl)methyl 4-chloroalpha-(1-methylethyl)benzeneacetate] | 350 ng/well | 350 nanograms | 4000 nanograms | 160 nanograms |  |
| CC(C)[C@H](C(=O)OC(C#N)c1cccc(Oc2ccccc2)c1)c1ccc(OC(F)F)cc1 (stereo partly drawn) [Flucythranate, cyano(3-phenoxyphenyl)methyl(S)-4-(difluoromethoxy)-alpha-(1-methylethyl) benzeneacetate] |  | 120 nanograms | 275 nanograms | 45 nanograms |  |
| CC1(C)C(C(=O)O)C1C(=O)OCc1cccc(Oc2ccccc2)c1 (stereo not shown) [Hapten] |  | 2 nanograms | 0.6 nanograms | 0.3 nanograms | responsiveness of antibodies [3]: similarly responsive |
| CC1(C)C(C=C(Cl)Cl)C1C(=O)OCc1cccc(Oc2ccccc2)c1 [Permethrin (trans isomers)] |  | 1.7 nanograms |  |  |  |
| C=CCC1=C(C)C(OC(=O)C2C(C=C(C)C)C2(C)C)CC1=O (stereo not shown) [allethrin] |  |  |  |  | stability in the air and water [2]: unstable character |
| C=CCC1=C(C)C(OC(=O)[C@@H]2[C@@H](C=C(C)C)C2(C)C)CC1=O (stereo partly shown) [bioallethrin] |  |  |  |  | stability in the air and water [2]: unstable character |
